{
  "source": "patent US6875422B2",
  "about": "“Oral treatment/care agent” (priority 2000, dated 2005)",
  "conditions": "used alone",
  "procedure": "Here, a complete cure was determined by comparing the configuration and properties (hardness and color, in clinical practice) of the periodontium, mobility of the teeth, depth of pockets, hemorrhaging, pus discharge, effusion, bacterial flora within the pocket and the like, against those of a normal person (excepting any dramatic periodontial regeneration such as dramatic bone growth relative to the normal person through this medication alone).",
  "data": [
    {"smiles": "C[C@@H]1[C@H](O)[C@@H](C)/C=C/C=C/C=C/C=C/C=C/C=C/C=C/[C@H](O[C@@H]2O[C@H](C)[C@@H](O)[C@H](N)[C@@H]2O)C[C@@H]2O[C@](O)(C[C@@H](O)C[C@@H](O)[C@H](O)CC[C@@H](O)C[C@@H](O)CC(=O)O[C@H]1C)C[C@H](O)[C@H]2C(=O)O", "note": "[amphotericin, amphotericin B]", "values": [
      {"measurement": "occurrences on use alone", "value": "annual-term occurrences"}
    ]}
  ]
}
